Measurements published in US11213514B2, “Alpha-1-adrenergic receptor agonist therapy” (The Regents of the University of California, priority 2016, dated 2022).
Where “and” joins values, the source holds several entries; their conditions need not be identical. Identical values can stand only once. Like-named read-outs stand apart in the source and are kept apart here.

Key:
[1] = tested on: mice lacking the α1A-AR (AKO); test: Doxorubicin cardiotoxicity in mice lacking the α1A-AR (survival, anatomy, conscious echocardiography)
Excerpt: FIGS. 2A-2B. […] On Day 7 the mice underwent echocardiography prior to sacrifice. FIG. 2A. Fractional shortening, a measure of contractile function, with representative M-mode echocardiogram images. […] FIG. 2B. Heart sections from some of these mice (i.e. wild type mice) stained with Masson Trichrome. Fibrosis (weighted average collagen content) was quantified using Aperio ImageScope software.
C57Bl6J mice were from Jackson Laboratory or from our breeding colony. α1A-AR knockout (AKO) mice from Paul C. Simpson were congenic on a C57Bl6J background for at least 10 generations and produced by heterozygous breeding in our animal facility. 8-12 week old males were used in all experiments. Female Sprague-Dawley rats with newborn litters were from Charles River. Animal care and experimental protocols were approved by the UNC IACUC and complied with Guide for the Care and the use of Laboratory Animals (National Research Council Committee for the Update of the Guide for the Care and Use of Laboratory Animals, 2011).
On Day 7, mice underwent echocardiography and were sacrificed by cervical dislocation after an overdose of isoflurane.
Conscious transthoracic echocardiography was performed on loosely restrained mice in the McAllister Heart Institute Animal Models Core using a VisualSonics Vevo 2100 ultrasound system (VisualSonics, Inc., Toronto, Ontario, Canada). Two-dimensional and M-mode echocardiography were performed in the parasternal long-axis view at the level of the papillary muscle. Left ventricular systolic function was assessed by fractional shortening (% FS=[(LVEDD−LVESD)/LVEDD]×100). Reported values represent the average of at least five cardiac cycles per mouse. Sonographers and investigators were blinded to mouse treatment condition during image acquisition and analysis.

[2] = tested on: PGC1α; test: qRT-PCR for PGC1α in mouse heart tissue; assay type: in vivo
Experimental: (§1) FIGS. 3A-3E. […] FIG. 3A. […] FIG. 3B. […] FIG. 3C. […] FIG. 3E.
(§2) (FIG. 3B). […] (FIG. 3C).
Total RNA was isolated from cells and tissue (QiagenRNeasy Plus mini kit #74134) and analyzed using a NanoDrop (ThermoScientific). For qRT-PCR, one […]g of RNA was reverse transcribed using High Capacity cDNA Reverse Transcription Kit (Life Technologies #4368814). Two step qRT-PCR reactions contained 2% of the cDNA product. All reactions were performed in triplicate in a Roche 480 Light Cycler. Relative quantitation of PCR products used the ΔΔCt method relative to two validated reference genes (Tbp and Polr2a). Similar efficiencies were confirmed for all primers. All probes and primers were from Roche.

[3] = tested on: mouse heart ATP content
Experimental: FIGS. 3A-3E. […] Heart tissue was collected immediately after sacrifice on Day 7. FIG. 3A. […] Gene set analysis was performed on the DESeq2-derived statistics from an omnibus test across these four categories. […] FIG. 3B. RNA abundance for all sequenced cytochrome C oxidase subunits (25 genes), mitochondrial complex I subunits (42 genes), and ATP synthase subunits (17 genes) was aggregated by group and compared to vehicle treatment. FIG. 3C. Quantitative RT-PCR for peroxisome proliferator-activated receptor gamma coactivator 1-alpha (PGC1α) was performed on mouse heart tissue (n in individual bars) FIG. 3D. ATP content was measured in freshly harvested mouse heart tissue (total n in individual bars), then quantified relative to protein content. […] FIG. 3E. Thiobarbituric acid reactive substances (TBARS) were assayed in mouse myocardium.
as §2
Mouse hearts were removed and immediately processed for luciferin-luciferase ATP assay (ThermoFisher Scientific A22066) according to manufacturer instruction. Tissue was homogenized and heated at 95 C for 7 minutes, centrifuged at 14000 rpm for 5 minutes. Total protein in the supernatant was quantified using the Bradford Assay (Pierce #23200). Luminescence was measured at 560 nm.

[4] = tested on: TBARS (lipid peroxidation) in mouse myocardium; test: Thiobarbituric acid reactive substances (TBARS) in mouse heart tissue; assay type: in vivo
Excerpt: as §1, §2

[5] = tested on: neonatal rat ventricular myocytes (NRVMs); test: Annexin V / propidium iodide apoptosis and cell death in NRVMs; assay type: cell-based
Experimental: FIGS. 5A-5B. In neonatal rat ventricular myocytes, dabuzalgron protects against apoptotic and necrotic cell death due to doxorubicin. […] Apoptosis was detected using FITC-labeled Annexin V, cell death was detected using propridium iodide, and nuclei were labeled with Hoechst. FIG. 5A. Representative epifluorescence microscopy for each treatment condition. FIG. 5B. Fluorescence intensity was analyzed using Image J software for 3 independent experiments, using at least 2 wells per condition for each experiment.
Cells were washed with cold PBS two times then incubated with 200 μl binding buffer (10 mM HEPES, 140 mM NaCl, and 2.5 mM CaCl2, pH 7.4) including 10 μL fluorescein isothiocyanate (FITC)-labeled Annexin V, 2 μL propidium iodide (PI) and 1 μg/mL Hoechst 33342 (Molecular Probes, USA) for 15 min at room temperature. They were examined under a epifluorescence microscopy (Olympus IX81 Inverted Light Microscope, UNC Microscopy Core). Images were analyzed using Image J software. The experiment was carried out three independent times with duplicates of each treatment condition. An average of 352 nuclei were counted in an average of 6 microscopic fields per experiment.

[6] = tested on: cytochrome c, caspases, PARP; test: Immunoblot for cytochrome c and downstream effectors of apoptosis in NRVMs; assay type: cell-based, rat; details: NRVM lysates, 4 hours
Experimental: FIG. 6A-6C. […] FIG. 6A. Mitochondrial membrane potential was assessed using JC-1 and fluorescent intensity was quantified using a plate reader. Red indicates intact mitochondrial membrane potential; green indicates compromised mitochondrial membrane potential (relative). Lysates were blotted for selected regulators of apoptosis and mitochondrial cell death effectors.
Homogenized tissue or cells were lysed in RIPA buffer with protease and phosphatase inhibitor (as above) and the lysate was passed through a Qiashredder. Equal protein abundance was assured with the Bradford assay (tissue lysates) or equal cell number (NRVMs). Samples were run for 2 hours at 140 v on ice on a Novex NuPAGE 4-12% Bis-Tris gel then transferred to a PVDF membrane at 90V for 1 hour on ice. Membranes were blocked in 5% milk at room temperature for 1 hour. We used Cell Signaling kit #9100 (pERK Thr202/Tyr204 1:250, ERK 1:1000, anti-rabbit HRP 1:1000). BID: (Santa Cruz, SC-11423); Cytochrome C: (Santa Cruz, SC-13560); AIF: (Santa Cruz, SC-13116); Caspase 8: (MBL international corporation, JM-3020-100); PARP: (Cell Signaling, #9532); Caspase 3: (Cell Signaling, #9665); Cleaved caspase 3: (Cell Signaling, #9664)

[7] = hearts of mice treated with DOX
[8] = NRVMs, DOX, four hour treatment
[9] = α1A-KO mice, Dox 20 mg/kg i.p. + dabuzalgron 20 μg/kg/d gavage 7 days
[10] = α1A-KO mice, Dox + 1240 20 μg/kg/d, Day 7 echocardiography

COc1cccc2c1C(=O)c1c(O)c3c(c(O)c1C2=O)C[C@@](O)(C(=O)CO)C[C@@H]3O[C@H]1C[C@H](N)[C@H](O)[C@H](C)O1 [DOX, doxorubicin]
fractional shortening, DOX-treated AKO vs DOX-treated WT mice ([1]; mouse, in vivo): significantly lower | 7-day survival ([1]; α1A-KO mice, Dox 20 mg/kg i.p. + vehicle gavage 7 days): 38% and 50% | 7-day survival ([1]; α1A-KO mice, Dox 20 mg/kg i.p. + vehicle gavage 7 days, listed as Dox): 38% | PGC1α abundance ([2]; mouse heart in vivo, DOX): decreased | decrease in ATP content compared to untreated hearts ([3]; mouse, in vivo): 23±7% | TBARS abundance [4, 7]: more abundant | apoptosis (Annexin V staining) [5, 8]: increased | necrotic cell death (costaining with Annexin V and propidium iodide) [5, 8]: increased | cleavage of caspases and PARP ([6]; doxorubicin 2 μM): caused cleavage | cytochrome c release ([6]; doxorubicin 2 μM): increased

Cc1c(OCC2=NCCN2)ccc(Cl)c1NS(C)(=O)=O [dabuzalgron, N-[6-chloro-3-(4,5-dihydro-1H-imidazol-2-ylmethoxy)-2-methylphenyl]methanesulfonamide]
effect on reduction in contractile function after DOX ([1]; AKO mice): not rescued | effect of dabuzalgron on survival after DOX ([1]; AKO mice, DOX 20 mg/kg i.p., dabuzalgron 10 μg/kg twice daily 7 days): unaffected | 7-day survival [1, 9]: 50% | Body Wt Day 7 [1, 9]: 26.4 ± 1.2 g | HW/BW [1, 9]: 0.39 ± 0.01 % | HW/TL [1, 9]: 5.6 ± 0.2 mg/mm | Heart Wt [1, 9]: 101 ± 5 mg | Lung Wt/TL [1, 9]: 5.1 ± 0.2 mg/mm | FS (Fractional Shortening) [1, 10]: 42 ± 2% | HR (Heart Rate) [1, 10]: 618 ± 19 beats per minute | PGC1α abundance [2, 7]: increased | PGC1α abundance ([2]; hearts of mice treated with vehicle control): increased | ATP content ([3]; hearts of DOX-treated mice): restored | ATP content ([3]; uninjured mice): did not affect | TBARS content ([4]; co-administration of dabuzalgron with DOX): normalized | Annexin V or propidium iodide staining vs untreated cells [5]: did not change | effect on DOX-induced necrotic cell death ([5]; NRVMs, DOX 204 with dabuzalgron 1004, four hours): abrogated | effect on DOX-induced apoptosis ([5]; NRVMs, DOX with dabuzalgron 1004, four hours): abrogated | effect on DOX-induced cytochrome c release and cleavage of caspases and PARP ([6]; doxorubicin 2 μM with Dabuzalgron 10 μM): abrogated
